Measured values from US20040127518A1, “Modulation of anxiety through blockade of anandamide hydrolysis” (priority 2002, published 2004).

What was measured:
[1] = test system: rat cortical neurons; experiment: Transport, accumulation and release of non-metabolized [3H]anandamide in cortical neurons; assay type: cell-based
[2] = test system: brain content of anandamide, other fatty acid ethanolamides and 2-AG; experiment: Brain levels of fatty acid ethanolamides and 2-AG by HPLC/MS; assay type: in vivo, rat; details: 0.3 mg kg-1 i.p., 2 h after injection
Source text: We extracted lipids from tissues with a methanol-chloroform mixture and fractionated them by silica gel column chromatography (Giuffrida, A. et al., Anal. Biochem., 280, 87-93 (2000)). Anandamide and other fatty acid derivatives were quantified by HPLC/MS, using an isotope dilution method (Giuffrida, A. et al., Anal. Biochem., 280, 87-93 (2000)).

[3] = Body temperature (rectal probe); assay type: in vivo
Source text: (§1) We dissolved all compounds in saline/Tween 80/polyethylenglycol (90/5/5) and administered them by i.p. injection immediately before tests. We measured body temperature with a rectal probe (Type T, Copper-Costantan Thermocouple-Physitemp Instruments INC, Clifton, N.J.) connected to a digital thermometer (model BAT-12 Physitemp Instruments INC, Clifton, N.J.); and catalepsy using the procedure described in Tseng and Craft (Tseng, A. H. et al., Eur. J. Pharmacol., 430, 41-47 (2001)).

[4] = Catalepsy; assay type: in vivo; details: UCM532 10 mg kg-1 i.p.; UCM597 0.3 mg kg-1 i.p.; data not shown
Source text: as §1

[5] = Food intake in free-feeding rats; assay type: in vivo, rat; details: UCM532 10 mg kg-1 i.p.; UCM597 0.3 mg kg-1 i.p.; data not shown
Method: We recorded food intake in free-feeding rats by using an automated system (Scipro Inc., New York). Rats were acclimated to the test cages for three days prior to the tests. Each test began at the onset of the dark phase and lasted for 24 hours.

[6] = Mouse hot-plate test; assay type: in vivo; details: 0.5 mg kg-1 i.p., 60 min before test
Method: (§2) We dissolved FAAH inhibitors in polyethyleneglycol/water (1/1) and rimonabant in saline. Formalin and hot-plate assays were carried out in the mouse, as described (Beltramo, M. et al., FEBS Lett., 403, 263-267 (1997)).
(§3) The compounds exerted, however, moderate antinociceptive effects in two models of acute pain.

[7] = Mouse formalin test; assay type: in vivo; details: 0.5 mg kg-1 i.p.
Method: as §2, §3

[8] = Elevated zero maze test; assay type: in vivo, rat; details: adult rats; i.p. 30 min before test; UCM532 5 and 10 mg kg-1; UCM597 0.05-0.1 mg kg-1
Method: We dissolved FAAH inhibitors and rimonabant in dimethylsulfoxide (DMSO)/saline (7/3 and 9/1, respectively); we administered FAAH inhibitors by i.p. injection 30 min before tests and rimonabant 30 min before UCM532. The elevated zero maze was comprised of a black Perspex annular platform (105 cm diameter, 10 cm width) elevated to 65 cm above ground level, divided equally into four quadrants (Bickerdike, M. J. et al., Eur. J. Pharmacol., 271, 403-411 (1994); Shepherd, J. K. et al., Psychopharmacology, 116, 56-64 (1994)). […] We placed the rats in a closed quadrant and video recorded them for 5-min periods, thoroughly cleaning the maze between sessions. […] Results are expressed as percent time in open quadrant/total time (percent time open). Results were analyzed by one-way ANOVA followed by Tukey's test. We recorded motor activity of each rat in an Opto-Varimex cage (Columbus Instruments, Columbus, Ohio) linked on-line to a computer and placed in a sound-attenuated room illuminated by a 20-W white light. The amount of time spent in ambulatory activity was analyzed using an Auto-Track software (Columbus Instruments, Columbus, Ohio) as described elsewhere (Ali, M. M. et al., Neurosci. Lett., 284, 57-60 (2000); Wedzony, K. et al., Neuropsychopharmacology, 23, 547-559 (2000)). […] We analyzed data by overall one-way ANOVA followed by Tukey's test for individual between-group comparisons. […]

[9] = target: electric eel acetylcholinesterase (Electrophorus electricus, UniProt O42275)
Sequence of electric eel acetylcholinesterase (O42275 whole entry): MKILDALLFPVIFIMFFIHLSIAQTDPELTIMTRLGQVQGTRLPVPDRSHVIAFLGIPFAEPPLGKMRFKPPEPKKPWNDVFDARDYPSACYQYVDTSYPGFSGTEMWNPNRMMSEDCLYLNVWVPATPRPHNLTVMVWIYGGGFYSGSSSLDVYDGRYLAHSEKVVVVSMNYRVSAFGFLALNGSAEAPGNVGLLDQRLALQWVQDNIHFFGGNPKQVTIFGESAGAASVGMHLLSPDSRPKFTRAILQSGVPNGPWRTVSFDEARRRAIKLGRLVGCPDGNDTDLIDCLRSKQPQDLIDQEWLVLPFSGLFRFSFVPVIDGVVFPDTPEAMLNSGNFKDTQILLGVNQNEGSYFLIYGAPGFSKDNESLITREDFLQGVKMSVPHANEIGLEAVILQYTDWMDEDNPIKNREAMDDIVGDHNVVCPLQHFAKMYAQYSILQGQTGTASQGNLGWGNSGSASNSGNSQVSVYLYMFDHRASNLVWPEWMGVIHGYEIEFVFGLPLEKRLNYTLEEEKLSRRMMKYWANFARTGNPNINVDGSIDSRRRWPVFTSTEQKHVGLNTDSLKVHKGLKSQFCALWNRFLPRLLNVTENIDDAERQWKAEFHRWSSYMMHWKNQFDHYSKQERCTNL

[10] = target: horse plasma butyryl cholinesterase (Equus caballus, UniProt P81908); experiment: Cholinesterase assay with commercial kit, purified enzyme
Sequence of horse plasma butyryl cholinesterase (P81908 whole entry): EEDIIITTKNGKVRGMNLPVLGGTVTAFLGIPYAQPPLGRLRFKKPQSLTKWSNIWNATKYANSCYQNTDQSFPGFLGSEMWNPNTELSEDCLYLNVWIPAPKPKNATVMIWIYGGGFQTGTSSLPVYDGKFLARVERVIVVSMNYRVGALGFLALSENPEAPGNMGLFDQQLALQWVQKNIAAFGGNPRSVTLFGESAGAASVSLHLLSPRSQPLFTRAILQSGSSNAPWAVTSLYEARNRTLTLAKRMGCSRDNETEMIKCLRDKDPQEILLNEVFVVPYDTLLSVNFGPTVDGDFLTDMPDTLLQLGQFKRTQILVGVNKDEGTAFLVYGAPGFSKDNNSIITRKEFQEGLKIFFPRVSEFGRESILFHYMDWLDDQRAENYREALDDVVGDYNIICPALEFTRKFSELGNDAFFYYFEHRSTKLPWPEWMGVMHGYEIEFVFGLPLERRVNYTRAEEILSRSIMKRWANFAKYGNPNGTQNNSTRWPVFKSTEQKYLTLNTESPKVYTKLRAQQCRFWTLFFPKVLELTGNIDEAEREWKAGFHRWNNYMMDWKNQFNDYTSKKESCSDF
Source text: (§4) We prepared cell fractions from rat brain homogenates, and assayed membrane FAAH activity and cytosol MGL activity using anandamide [ethanolamine-3H] (American Radiolabeled Chemicals, ARC (St. Louis Mo.), 60 Ci/mmol) and 2-mono-oleoyl-glycerol-[glycerol-1,2,3^−3H] (ARC, St. Louis Mo., 20 Ci/mmol), respectively, as substrates (Dinh, T. Proc. Natl. Acad. Sci. U.S.A. (2002)). We conducted [^3H]anandamide transport assays in human astrocytoma cells (Piomelli, D. et al., Proc. Natl. Acad. Sci. U.S.A., 96, 5802-5807 (1999)); CB1 and CB2 binding assays in rat cerebellar membranes and CB2-overexpressing Chinese hamster ovary cells (Receptor Biology-Perkin Elmer, Wellesley, Mass.), respectively, using [^3H]WIN-55212-2 (NEN-Dupont, Boston, Mass., 40-60 Ci/mmol) as a ligand (Devane, W. A. et al. Science, 258, 1946-1949 (1992)); cholinesterase assays with a commercial kit (Sigma, St. Louis, Mo.), using purified enzymes (electric eel acetylcholinesterase type V-S and horse serum cholinesterase; both from Sigma, St. Louis, Mo.) and following manufacturer's instructions.

[11] = target: T1, rat brain monoglyceride lipase (MGL) (Rattus norvegicus, UniProt Q8R431); experiment: Cytosol MGL activity, 2-mono-oleoyl-glycerol as substrate
T1 sequence (Q8R431 1-303): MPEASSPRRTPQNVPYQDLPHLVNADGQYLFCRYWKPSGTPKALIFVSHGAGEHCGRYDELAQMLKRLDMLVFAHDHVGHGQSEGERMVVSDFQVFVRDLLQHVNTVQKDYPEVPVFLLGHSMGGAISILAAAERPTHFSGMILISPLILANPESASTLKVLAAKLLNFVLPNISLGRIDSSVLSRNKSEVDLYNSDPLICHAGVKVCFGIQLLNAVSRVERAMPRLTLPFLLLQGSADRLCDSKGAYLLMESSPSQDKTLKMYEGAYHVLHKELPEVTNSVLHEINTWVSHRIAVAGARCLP
Source text: as §4

[12] = test system: anandamide transport; experiment: [3H]anandamide transport assay in human astrocytoma cells; details: human astrocytoma cells
Source text: as §4

[13] = target: CB2 receptor (Homo sapiens, UniProt P34972); experiment: CB2 binding assay in CB2-overexpressing Chinese hamster ovary cells, [3H]WIN-55212-2
Sequence of CB2 receptor (P34972 whole entry): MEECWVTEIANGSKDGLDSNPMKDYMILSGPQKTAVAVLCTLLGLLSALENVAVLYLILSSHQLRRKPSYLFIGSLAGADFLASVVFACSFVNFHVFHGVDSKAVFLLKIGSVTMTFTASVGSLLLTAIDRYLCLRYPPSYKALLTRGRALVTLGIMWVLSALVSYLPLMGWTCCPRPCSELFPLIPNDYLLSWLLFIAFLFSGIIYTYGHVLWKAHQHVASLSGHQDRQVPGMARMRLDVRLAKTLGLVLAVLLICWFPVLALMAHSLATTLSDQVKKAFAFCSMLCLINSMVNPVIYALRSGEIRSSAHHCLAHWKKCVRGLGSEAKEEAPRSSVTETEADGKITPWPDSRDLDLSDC
Source text: as §4

Q: What does the source list for `NC(=O)c1cccc(-c2cccc(OC(=O)NC3CCCCC3)c2)c1` [UCM597, cyclohexylcarbamic acid 3′-carbamoylbiphenyl-3-yl ester]?
A: accumulation of non-metabolized [3H]anandamide in neurons ([1]; 4-min incubation, UCM532 3 μM, UCM597 10 nM, AM404 10 μM): promote accumulation; accumulated [3H]anandamide released back into the medium ([1]; UCM597-treated (10 nM) neurons, 15 min in [3H]anandamide-free solution, n=3): 42.6±8.7%; carrier-mediated uptake of [3H]anandamide ([1]; rat cortical neurons): without reducing; brain content of 2-AG [2]: did not change; brain content of anandamide [2]: significant elevations; brain content of oleoylethanolamide ([2]; n=8-15): 725.3 ± 28.6 pmol g^−1 of tissue; brain content of palmitoylethanolamide ([2]; n=8-15): 1324±395 pmol g^−1 of tissue; body temperature / hypothermia, compound alone ([3]; UCM532 10 mg kg-1 i.p., UCM597 0.3 mg kg-1 i.p.): no effect and no; decrease in body temperature elicited by anandamide ([3]; UCM597 0.3 mg kg-1 i.p. 30 min before anandamide 5 mg kg-1 i.p.): intensified and prolonged; catalepsy (rigid immobility) [4]: no catalepsy; hyperphagia (increased food intake) [5]: no; response latencies, hot-plate test [6]: significantly lengthened; early phase of formalin-evoked pain behavior [7]: attenuated; late phase of formalin-evoked pain behavior [7]: little or no change; percent time open, elevated zero maze [8]: anxiolytic-like responses; effect on acetylcholinesterase activity (in words) [9]: did not affect; effect on butyryl cholinesterase activity (in words) [10]: did not affect; effect on MGL activity (in words) [11]: did not affect; effect on anandamide transport (in words) [12]: no effect; effect on binding of a high-affinity ligand to CB2 (in words) [13]: no effect
